Assays:
C57Bl/6 mice [1] = assay: Acute single oral dose of MEAI: drug tolerability; format: in vivo; details: lean male mice
Procedure: (§1) Male 6-week-old C57Bl/6 mice (Harlan, Israel) were maintained in standard conditions under a 12 h light/dark cycle and fed ad libitum. A total of 32 animals were divided into four experimental groups (N = 8 mice per group) receiving single doses of 40, 60, or 100 mg/kg of MEAI or vehicle (sterile water), which was administered via oral gavage 2 h prior to the dark phase. The animals were monitored for 48 h postdose for drug tolerability, food and water intakes, and activity and metabolic parameters. At the end of the experiment, the animals were euthanized, and tissues (brain, liver, fat, and kidney) and blood were collected and stored in a frozen state for future analyses.

C57Bl/6 mice [2] = assay: Acute effect of MEAI on wheel running and locomotor activity; format: in vivo; details: lean male mice, vs vehicle
Procedure: as §1
(§2) The activity energy expenditure was calculated based on eq 7: [drawing 7] 7
(§3) The assessment of wheel running and locomotor activity was performed by using the Promethion High-Definition Behavioral Phenotyping System (Sable Instruments, Inc., Las Vegas, Nevada, USA). Wheel revolutions were measured with a monitor that recorded voluntary wheel running activity, and locomotor activity was quantified using disruptions of infrared XYZ beam arrays with a beam spacing of 0.25 cm. Pedestrian locomotion represented the sum of all directed ambulatory locomotion within the beam break system, using a speed cutoff of 1 cm/s. Total distance represented the sum of all distances traveled within the beam break system, not including any distance run on the wheel in meters (m); this included fine movements (such as grooming and scratching).

DIO C57BL/6 mice [3] = assay: Wheel running and locomotor activity in DIO mice; format: in vivo; details: 40 mg/kg/day
Procedure: (§4) Male C57BL/6 mice were used to establish DIO by feeding them a high-fat diet (HFD; 60% cal/L fat, 20% cal/L protein, and 20% cal/L carbohydrates; Research Diet, D12492) for 18 weeks. After this period, mice were treated with either vehicle (sterile water, N = 8) or MEAI (N = 11) daily for 28 days by gavage at a dose of 40 mg/kg/day. Age-matched control mice (N = 10) on a standard diet (STD; 14% kcal fat, 24% kcal protein, 62% kcal carbohydrates; NIH-31 rodent diet) received vehicle daily. The body weight of all mice was monitored daily, and total body fat and lean mass were determined by EchoMRI-100H (Echo Medical Systems LLC, Houston, Texas, USA). On day 29, at the end of the experimental period, mice were euthanized by a cervical dislocation under anesthesia. The kidneys, brain, liver, and fat pads were removed and weighed, and samples were either snap-frozen or fixed in buffered 4% formalin. Trunk blood was collected to determine the biochemical parameters.
as §2, §3

DIO C57BL/6 mice [4] = assay: Glucose tolerance test (ipGTT) and insulin tolerance test (ipITT) in DIO mice; format: in vivo; details: 40 mg/kg/day
Procedure: as §4
On day 25 of the experiment, mice were subjected to an overnight fasting and then injected with glucose (1.5 g/kg i.p.) on the following day (day 26). Blood glucose levels were determined at 0, 15, 30, 45, 60, 90, and 120 min after injection using the Contour glucometer (Bayer, Pittsburgh, Pennsylvania, USA). The mice were then fasted for 6 h the next day (day 27) before being administered insulin (0.75 U/kg, i.p.; Actrapid vials, Novo Nordisk A/S, Bagsværd, Denmark). Blood glucose levels were determined at the same intervals as those described above. To assess insulin resistance, the homeostasis model assessment insulin resistance (HOMA-IR) was calculated as fasting serum insulin ([μU/mL] × fasting plasma glucose [mmol/L]/22.5). The relative insulin sensitivity index (ISI) was calculated as 1/(glucose × insulin) × 1000, with glucose expressed as mg/dL and insulin as mU/L.

DIO C57BL/6 mice [5] = assay: Blood biochemistry in DIO mice; format: in vivo; details: 40 mg/kg/day
Procedure: as §4
Serum levels of alanine aminotransferase (ALT), aspartate aminotransferase (AST), alkaline phosphatase (ALP), cholesterol, triglycerides, high-density lipoprotein (HDL), and low-density lipoprotein (LDL) were quantified post-termination using the Cobas C-111 chemistry analyzer (Roche, Switzerland). Fasting blood glucose was measured using the Contour glucometer (Bayer, Pittsburgh, Pennsylvania, USA), while serum insulin was determined using an Ultra-Sensitive Mouse Insulin ELISA kit (Cat# 90080, Crystal Chem, Inc., Elk Grove Village, Illinois, USA). Serum-free fatty acid content was determined using a Free Fatty Acid Assay Kit (Cat# ab65341, Abcam, Cambridge, UK).

[6] = test system: norepinephrine transporter (NET); parameters: method as in PMID 30904940; details: cited from earlier work
[7] = test system: serotonin transporter (SERT); parameters: method as in PMID 30904940; details: cited from earlier work
[8] = single oral dose, all doses (40, 60, 100 mg/kg)
[9] = vs HFD-vehicle, did not surpass STD-vehicle

Question: What does the source list for COc1ccc2c(c1)CC(N)C2.Cl (stereo not drawn) [MEAI, 2,3-Dihydro-5-methoxy-1H-inden-2-amine hydrochloride]?
Answer: deaths after dosing (C57Bl/6 mice [1]; single oral dose 100 mg/kg, within a few hours): two subjects in the 100 mg/kg group died; drug tolerability (C57Bl/6 mice [1]; single oral dose, 40 and 60 mg/kg): well-tolerated; pedestrian speed (C57Bl/6 mice [2]; single oral dose 60 mg/kg): significant increase; total number of beam breaks (ambulation and fine movements) (C57Bl/6 mice [2]; single oral dose 40, 60 or 100 mg/kg): minor alterations; directed voluntary activity (pedestrian locomotion) (C57Bl/6 mice [2]; single oral dose, 40 mg/kg and above): significant and dose-dependent increase; average distance traveled within the cage (C57Bl/6 mice [2]; [8]): significant elevations; total distance traveled within the cage (C57Bl/6 mice [2]; [8]): significant elevations; sum of voluntary wheel running activity (C57Bl/6 mice [2]; single oral dose, any dose tested): did not significantly affect; activity-specific energy expenditure (C57Bl/6 mice [2]; single oral dose): modest insignificant rise; voluntary wheel running (DIO C57BL/6 mice [3]): increased capability to run on the voluntary wheel; wheel running speed (DIO C57BL/6 mice [3]): comparable to the STD-vehicle-treated group; interaction times with food and water dispensers (time budget) (DIO C57BL/6 mice [3]; Results section): extended; voluntary ambulatory behaviors (pedestrian activity and grooming) (DIO C57BL/6 mice [3]; pronounced during nocturnal phase): significantly boosted; energy expenditure associated with activity levels (DIO C57BL/6 mice [3]; trend toward an increase): did not reach statistical significance; pedestrian activity (DIO C57BL/6 mice [3]; [9]): increased; pedestrian speed (DIO C57BL/6 mice [3]; [9]): increased; total distance traveled (DIO C57BL/6 mice [3]; [9]): increased; HOMA-IR score (DIO C57BL/6 mice [4]): improved; ISI score (DIO C57BL/6 mice [4]): improved; fasting blood glucose levels (DIO C57BL/6 mice [4]): reduced; glucose metabolism (glucose and insulin tolerance tests) (DIO C57BL/6 mice [4]; days 26-27): significant improvement; insulin levels (DIO C57BL/6 mice [5]): reduced; circulating leptin levels (DIO C57BL/6 mice [5]; 28 days, vs HFD vehicle): effectively countered the HFD-induced elevation; serum serotonin levels (DIO C57BL/6 mice [5]; 28 days, vs HFD vehicle): did not significantly alter; circulating levels of adiponectin (DIO C57BL/6 mice [5]; across all groups): remained unchanged; circulating triglyceride levels (DIO C57BL/6 mice [5]; across all groups): remained largely unchanged; HDL levels (DIO C57BL/6 mice [5]; serum): without a significant change; HDL-to-LDL ratio (DIO C57BL/6 mice [5]; serum): positive shift; free fatty acids (DIO C57BL/6 mice [5]; serum): trend toward reduced; total cholesterol levels (DIO C57BL/6 mice [5]; serum, did not reach statistical significance): downward trend; LDL (DIO C57BL/6 mice [5]; serum, vs HFD vehicle): significant decrease; ALP levels (DIO C57BL/6 mice [5]; serum, vs HFD-vehicle): significantly reduced; ALT levels (DIO C57BL/6 mice [5]; serum, vs HFD-vehicle): did not significantly alter; AST levels (DIO C57BL/6 mice [5]; serum, vs HFD-vehicle): did not significantly alter; interaction with transporter [6]: interacts; interaction with transporter [7]: interacts

From paper PMC11320730, “5-Methoxy-2-aminoindane Reverses Diet-Induced Obesity and Improves Metabolic Parameters in Mice: A Potential New Class of Antiobesity Therapeutics” (ACS Pharmacology & Translational Science, 2024)
